Experimental data from patent US8735398B2 (Bristol-Myers Squibb Company, priority 2009, dated 2014).
pEC50: −log10 of the molar value.

These molecules were tested on HCV 1b genotype (assay: HCV replicon assay (HCV-neo replicon cells, wild-type)). Details: HCV 1b genotype replicon; class symbol; read-out: EC50 Range against HCV 1b.
Type: cell-based, Hepatitis C virus
In short: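 Inhibition was tested in replicon-bearing cells, both wild-type HCV-neo and lines with NS5A resistance substitutions, using the O'Boyle et al. 2005 replicon method or luciferase-reporter formats.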

SMILES	pEC50
CN(C)C(C(=O)N1CCC[C@H]1C(=O)Nc1ccc(-c2cnc(-c3ccc(NC(=O)[C@@H]4CCCN4C(=O)C(c4ccc(F)cc4F)N(C)C)cc3)o2)cc1)c1ccc(F)cc1F (single isomer, unassigned) [Example D-7]	7.00 to 8.34

Same assay, conditions: Hepatitis C virus, HCV 1b genotype replicon; class symbol; read-out: EC50 Range against HCV 1b

SMILES	pEC50
O=C(Nc1ccc(-c2nc[nH]c2-c2ccc(NC(=O)[C@@H]3CCCN3C(=O)[C@@H](O)c3ccccc3)cc2)cc1)[C@@H]1CCCN1C(=O)[C@@H](O)c1ccccc1 [JG-44, (2S,2′S)-N,N′-(1H-imidazole-4,5-diyldi-4,1-phenylene)bis(1-((2S)-2-hydroxy-2-phenylacetyl)-2-pyrrolidinecarboxamide)]	6.00 to 7.00
C[C@@H](C(=O)N1CCC[C@H]1C(=O)Nc1ccc(-c2ccc(-c3ccc(NC(=O)[C@@H]4CCCN4C(=O)[C@H](C)c4ccccc4)cc3)o2)cc1)c1ccccc1 [JG-53, (2S,2′S)-N,N′-(2,5-furandiyldi-4,1-phenylene)bis(1-((2R)-2-phenylpropanoyl)-2-pyrrolidinecarboxamide)]	7.00 to 8.34
CC(=O)N1CCC[C@H]1C(=O)Nc1ccc(-c2nc(-c3ccc(NC(=O)[C@@H]4C=CCN4C(=O)Cc4ccccc4)cc3)cs2)cc1 [Example D-49, (2S)-N-[4-[2-[4-[[[(2S)-1-acetyl-2-pyrrolidinyl]carbonyl]amino]phenyl]-4-thiazolyl]phenyl]-2,5-dihydro-1-(phenylacetyl)-1H-pyrrole-2-carboxamide]	5.00 to 6.00
O=C(Nc1ccc(-c2cnc(-c3ccc(NC(=O)[C@@H]4CCCN4C(=O)c4onc5ccccc45)cc3)o2)cc1)[C@@H]1CCCN1C(=O)c1onc2ccccc12 [JG-30, (2S,2′S)-N,N′-(1,3-oxazole-2,5-diyldi-4,1-phenylene)bis(1-(2,1-benzisoxazol-3-ylcarbonyl)-2-pyrrolidinecarboxamide)]	7.00 to 8.34
O=C(Nc1ccc(-c2nnc(-c3ccc(NC(=O)[C@@H]4CCCN4C(=O)c4nc(Cl)cc5ccccc45)cc3)o2)cc1)[C@@H]1CCCN1C(=O)c1nc(Cl)cc2ccccc12 [RK-18, (2S,2′S)-N,N′-(1,3,4-oxadiazole-2,5-diyldi-4,1-phenylene)bis(1-((3-chloro-1-isoquinolinyl)carbonyl)-2-pyrrolidinecarboxamide)]	5.00 to 6.00
O=C(Nc1ccc(-c2cnc(-c3ccc(NC(=O)[C@@H]4CCCN4C(=O)C4CCC4)cc3)o2)cc1)[C@@H]1CCCN1C(=O)C1CCC1 [JG-9, (2S,2′S)-N,N′-(1,3-oxazole-2,5-diyldi-4,1-phenylene)bis(1-(cyclobutylcarbonyl)-2-pyrrolidinecarboxamide)]	6.00 to 7.00
O=C(Nc1ccc(-c2nc[nH]c2-c2ccc(NC(=O)[C@@H]3CCCN3C(=O)c3cc4ccccc4o3)cc2)cc1)[C@@H]1CCCN1C(=O)c1cc2ccccc2o1 [JG-51, (2S,2′S)-N,N′-(1H-imidazole-4,5-diyldi-4,1-phenylene)bis(1-(1-benzofuran-2-ylcarbonyl)-2-pyrrolidinecarboxamide)]	6.00 to 7.00
C[C@H](NC(=O)c1nc(Cl)cc2ccccc12)C(=O)Nc1ccc(-c2cc(-c3ccc(NC(=O)[C@H](C)NC(=O)c4nc(Cl)cc5ccccc45)cc3)[nH]n2)cc1 [OL-48, N,N′-(1H-pyrazole-3,5-diylbis(4,1-phenyleneimino((2S)-1-oxo-1,2-propanediyl)))bis(3-chloro-1-isoquinolinecarboxamide)]	6.00 to 7.00
CCc1ccccc1C(=O)N1CCC[C@H]1C(=O)Nc1ccc(-c2nnc(-c3ccc(NC(=O)[C@@H]4CCCN4C(=O)c4ccccc4CC)cc3)o2)cc1 [RK-9, (2S,2′S)-N,N′-(1,3,4-oxadiazole-2,5-diyldi-4,1-phenylene)bis(1-(2-ethylbenzoyl)-2-pyrrolidinecarboxamide)]	6.00 to 7.00
O=C(Nc1ccc(-c2nc[nH]c2-c2ccc(NC(=O)[C@@H]3CCCN3C(=O)OCc3ccccc3)cc2)cc1)[C@@H]1CCCN1C(=O)OCc1ccccc1 [OL-7, (2S,2′S)-2,2′-[1H-imidazole-4,5-diylbis(4,1-phenyleneiminocarbonyl)]bis-1-pyrrolidinecarboxylic acid, bis(phenylmethyl) ester]	7.00 to 8.34

Same assay, conditions: Hepatitis C virus, HCV 1b genotype replicon; class symbols; read-out: EC50 Range against HCV 1b

SMILES	pEC50
CC(C)(C)O[C@@H]1C[C@@H](C(=O)Nc2ccc(-c3cnc(-c4ccc(NC(=O)[C@@H]5C[C@@H](OC(C)(C)C)CN5C(=O)C5CC5)cc4)o3)cc2)N(C(=O)C2CC2)C1 [XY-74, (2S,4R,2′S,4′R)-N,N′-(1,3-oxazole-2,5-diyldi-4,1-phenylene)bis(4-tert-butoxy-1-(cyclopropylcarbonyl)-2-pyrrolidinecarboxamide)]	6.00 to 7.00

Same assay, conditions: Hepatitis C virus, HCV 1b genotype replicon; read-out: EC50 1b

SMILES	pEC50
C[C@H](NC(=O)c1nc(Cl)cc2ccccc12)C(=O)Nc1ccc(-c2cc(-c3ccc(NC(=O)[C@H](C)NC(=O)c4nc(Cl)cc5ccccc45)cc3)[nH]n2)cc1 [OL-48, N,N′-(1H-pyrazole-3,5-diylbis(4,1-phenyleneimino((2S)-1-oxo-1,2-propanediyl)))bis(3-chloro-1-isoquinolinecarboxamide)]	6.55
